Measured values from patent publication US20240376091A1, “THIADIAZOLEAMIDE DERIVATIVES AND THEIR APPLICATIONS” (ZHEJIANG UNIVERSITY, priority 2021, published 2024).

Legend:
FL-AR^V684A = target: T1, FL-AR^V684A (Homo sapiens, UniProt P10275, V685A); test: Luciferase reporter assay in PC3 cells, AR V684A; assay type: cell-based; conditions: read-out: IC50 toward FL-AR^V684A
T1 construct: toward full-length (FL)-AR^WT and FL-AR^V684A; expressed in transfected cells; host or cells: PC3
T1 sequence (P10275 1-920 V685A): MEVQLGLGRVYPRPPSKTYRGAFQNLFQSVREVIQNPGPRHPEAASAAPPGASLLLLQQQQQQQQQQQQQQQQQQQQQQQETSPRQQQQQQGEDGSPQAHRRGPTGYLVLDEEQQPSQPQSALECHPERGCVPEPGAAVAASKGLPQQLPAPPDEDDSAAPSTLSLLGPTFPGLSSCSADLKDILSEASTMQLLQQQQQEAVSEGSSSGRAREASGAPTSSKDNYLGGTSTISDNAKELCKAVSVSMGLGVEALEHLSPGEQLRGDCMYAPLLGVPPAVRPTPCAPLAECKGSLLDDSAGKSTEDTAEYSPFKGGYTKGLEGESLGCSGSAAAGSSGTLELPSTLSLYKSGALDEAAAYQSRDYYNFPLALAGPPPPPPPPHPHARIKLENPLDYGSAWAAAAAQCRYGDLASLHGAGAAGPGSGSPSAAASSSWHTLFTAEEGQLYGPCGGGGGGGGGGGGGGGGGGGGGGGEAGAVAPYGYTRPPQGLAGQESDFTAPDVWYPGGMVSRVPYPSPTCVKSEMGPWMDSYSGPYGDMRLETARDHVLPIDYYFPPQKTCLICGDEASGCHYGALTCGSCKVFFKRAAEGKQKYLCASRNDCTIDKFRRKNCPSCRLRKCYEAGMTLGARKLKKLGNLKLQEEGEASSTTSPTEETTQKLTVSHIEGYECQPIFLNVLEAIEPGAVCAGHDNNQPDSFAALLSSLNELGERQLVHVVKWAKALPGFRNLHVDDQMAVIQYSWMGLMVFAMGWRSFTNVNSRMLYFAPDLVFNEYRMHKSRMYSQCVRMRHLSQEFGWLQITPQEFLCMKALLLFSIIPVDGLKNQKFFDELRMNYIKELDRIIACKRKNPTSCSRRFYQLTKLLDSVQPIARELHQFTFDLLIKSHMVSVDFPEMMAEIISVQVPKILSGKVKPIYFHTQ
Description: Detection principles: A reporter system for detecting the activities of firefly luciferase. To quantitatively detect the interaction between transcription factors and target promoters, the fluorescent intensities are detected to quantitatively evaluate the activities of firefly luciferase.
Methods: PC3 cells (no endogenous AR) treated with DMEM media supplemented with 5% CSS for 48 hours. Then, the PC3 cells (1.2×10^4/well) were seeded into 96-well plates. After 16 hours, the PC3 cells were transfected with 20 ng/well plasmid and incubated for 20 min at room temperature. After 1 day incubation, the media in the wells was replaced, followed by the addition of various concentrations of compounds. After 48 hours, the culture medium was discarded and the cells were washed with 100 μL PBS, followed by addition of 30 μL 1×PLB and the 96-well plates was shaken on a shaker for 20 min to ensure complete lysis of the cells. Then, the cell lysis supernatant (20 μL/well) was transferred to a white opaque 96-well, and addition of 30 μL Luciferase Assay Reagent II to each well. Then, the fluorescent intensities of firefly luciferase were evaluated. Afterwards, 30 μL Stop&Glo Reagant was added to the wells, and the fluorescent intensities of […] evaluated.

LNCaP xenograft = LNCaP xenograft model in vivo; conditions: intratumor injection 2.5 mg/kg/week
Description: Methods: LNCaP cells were injected to the Male CB17 SCID mice (6-8 weeks old). Once tumor size reached target value, the mice were randomized into three groups with 6-8 mice per group. […] The mice weight and tumor volume were periodically recorded. Finally, the tumors were harvested.

AR-LBD dimer = target: T2, AR-LBD dimer (Homo sapiens, UniProt P10275); test: Small-angle X-ray scattering (SAXS) of AR-LBD dimerization; conditions: AR-LBD 35 μM, DHT 10 μM, Enzalutamide 105 μM, A-1 105 μM
T2 sequence (P10275 669-900 limits assumed): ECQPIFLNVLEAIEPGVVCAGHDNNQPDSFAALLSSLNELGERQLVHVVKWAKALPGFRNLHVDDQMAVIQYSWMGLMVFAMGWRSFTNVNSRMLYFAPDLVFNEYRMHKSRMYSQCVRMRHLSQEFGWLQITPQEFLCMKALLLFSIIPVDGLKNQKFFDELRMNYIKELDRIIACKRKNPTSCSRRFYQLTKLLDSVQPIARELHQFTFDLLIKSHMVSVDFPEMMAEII
Text: Detection principles: SAXS is a vital technique for detecting conformational changes of biomacromolecule by quantitatively evalucate the overall dimension and shape silhouette of biomacromolecule.
The SAXS scattering signal were collected for 20 frames (1 second exposure time) using the BL19U2 beamline. The ATSAS software were applied to analysis the results.

Q: Which IC50 (FL-AR^V684A) does the source give for CC(=O)Cc1nsc(NC(=O)c2cc(-c3cccc(C(F)(F)F)c3)oc2C)n1 [Compound A-1, 2-Methyl-N-(3-(2-oxopropyl)-1,2,4-thiadiazol-5-yl)-5-(3-(trifluoromethyl)phenyl)furan-3-carboxamide] here?
A: Its IC50 is 60 nM.

Q: And the body weight (LNCaP xenograft)?
A: Its body weight is “no significant loss of body weight”.

Q: What about the “tumor growth inhibition, tumor volume” value (LNCaP xenograft) of the same molecule?
A: Its value is “much superior to that for Enzalutamide”.

Q: And the “tumor growth inhibition, tumor weight” value (LNCaP xenograft)?
A: The value was “much superior to that for Enzalutamide”.

Q: And the AR-LBD dimerization (AR-LBD dimer)?
A: Its AR-LBD dimerization is “inhibits AR-LBD dimerization”.
